Assays:
human ALX receptor = molecular target: T1, human ALX receptor (Homo sapiens, UniProt P25090); experiment: Intracellular calcium measurements (FLIPR), agonistic activity in HEK293-hALXR-Gα16 cells; type: cell-based; conditions: Fluo-4 calcium FLIPR, normalized to WKYMVm 10 nM
T1 construct: expressed in transfected cells; host or cells: HEK293 (HEK293-hALXR-Gα16)
T1 sequence (P25090 1-351): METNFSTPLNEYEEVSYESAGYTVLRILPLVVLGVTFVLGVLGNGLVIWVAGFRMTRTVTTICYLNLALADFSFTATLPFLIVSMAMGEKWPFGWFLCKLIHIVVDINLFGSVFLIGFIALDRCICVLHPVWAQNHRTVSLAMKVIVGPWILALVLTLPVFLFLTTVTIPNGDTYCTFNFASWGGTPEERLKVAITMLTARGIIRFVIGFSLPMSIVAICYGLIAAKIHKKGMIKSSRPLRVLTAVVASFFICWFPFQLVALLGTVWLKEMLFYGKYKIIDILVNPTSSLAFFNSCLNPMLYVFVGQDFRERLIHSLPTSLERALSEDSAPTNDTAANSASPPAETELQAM
In short: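 HEK293 cells expressing hALXR and Gα16 were loaded with 1 μM Fluo-4 AM and 20 mM HEPES for 60 min at 37°C, then exposed to serially diluted compound. FLIPR fluorescence was read at ex 488/em 540 nm. Baseline-subtracted peak responses were normalized to 10 nM WKYMVm.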

human FPRL2 = molecular target: T2, human FPRL2 (Homo sapiens, UniProt P25089); experiment: Intracellular calcium measurements (FLIPR), agonistic activity in HEK293-hFPRL2-Gα16 cells; type: cell-based; conditions: Fluo-4 calcium FLIPR, normalized to GLY14-Humanin 100 nM
T2 construct: expressed in transfected cells; host or cells: HEK293 (HEK293-hFPRL2-Gα16)
T2 sequence (P25089 1-353): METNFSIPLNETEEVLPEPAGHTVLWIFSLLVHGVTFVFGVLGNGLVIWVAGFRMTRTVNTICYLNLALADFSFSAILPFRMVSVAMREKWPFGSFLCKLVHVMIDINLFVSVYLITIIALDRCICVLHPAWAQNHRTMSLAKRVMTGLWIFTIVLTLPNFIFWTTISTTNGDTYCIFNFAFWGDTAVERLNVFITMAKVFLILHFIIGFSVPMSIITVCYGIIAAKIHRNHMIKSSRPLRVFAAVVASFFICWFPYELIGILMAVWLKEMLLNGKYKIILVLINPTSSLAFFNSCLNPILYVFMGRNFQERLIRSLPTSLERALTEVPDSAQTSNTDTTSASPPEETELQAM
In short: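 Peak values after baseline subtraction are expressed relative to 100 nM Gly14-Humanin; compounds diluted in assay buffer from 10 mM DMSO stocks.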

| Compound | EC50 (human ALX receptor) [nM] | EC50 (human FPRL2) [nM] |
| --- | --- | --- |
| CCN(CC)CCCCNC(=O)C1C(C(=O)NCc2ccc(Br)cc2)C2C=CC1C21CC1 (stereo not drawn) [Example 272, (5R*)—N^5-(4-Bromophenyl-methyl)-(6R*)—N^6-(4-diethylamino-butyl)-(4S*,7R*)-[4,7-ethenylene-spiro[2.4]heptane]-5,6-dicarboxamide] | 121 | 299 |
| NC(=O)CCNC(=O)[C@H]1[C@H](C(=O)Nc2ccc(Br)nc2)[C@@H]2CC[C@H]1C21CC1 [Example 278, (5R)—N^5-(2-Bromopyrid-5-yl)-(6R)—N^6-(3-amino-3-oxopropyl)-(4S,7R)-[4,7-ethylene-spiro[2.4]heptane]-5,6-dicarboxamide] | 7.9 | > 25000 |
| O=C(NCCCCN1CCCC1)[C@H]1[C@H](C(=O)Nc2ccc(Br)nc2)[C@@H]2CC[C@H]1C21CC1 [Example 279, (5R)—N^5-(2-Bromopyrid-5-yl)-(6R)—N^6-(4-pyrrolidino-butyl)-(4S,7R)-[4,7-ethylene-spiro[2.4]heptane]-5,6-dicarboxamide] | 1.3 | 62 |
| NC(=O)CCNC(=O)[C@H]1[C@H](C(=O)Nc2ccc(Br)cn2)[C@@H]2C=C[C@H]1C21CC1 [Example 280, (5R)—N^5-(5-Bromopyrid-2-yl)-(6R)—N^6-(3-amino-3-oxopropyl)-(4S,7R)-[4,7-ethenylene-spiro[2.4]heptane]-5,6-dicarboxamide] | 258 | > 25000 |
| NC(=O)CCNC(=O)[C@H]1[C@H](C(=O)Nc2ccc(Cl)nc2)[C@@H]2C=C[C@H]1C21CC1 [Example 281, (5R)—N^5-(2-Chloropyrid-5-yl)-(6R)—N^6-(3-amino-3-oxopropyl)-(4S,7R)-[4,7-ethenylene-spiro[2.4]heptane]-5,6-dicarboxamide] | 31 | > 25000 |
| NC(=O)CCNC(=O)[C@H]1[C@H](C(=O)NCc2ccc(Br)cc2F)[C@@H]2C=C[C@H]1C21CC1 [Example 282, (5R)—N^5-(4-Bromo-2-fluorophenyl-methyl)-(6R)—N^6-(3-amino-3-oxopropyl)-(4S,7R)-[4,7-ethenylene-spiro[2.4]heptane]-5,6-dicarboxamide] | 146 | > 25000 |
| NC(=O)CCNC(=O)[C@H]1[C@H](C(=O)NCc2cnc(Br)s2)[C@@H]2C=C[C@H]1C21CC1 [Example 283, (5R)—N^5-(2-Bromothiazol-5-yl-methyl)-(6R)—N^6-(3-amino-3-oxopropyl)-(4S,7R)-[4,7-ethenylene-spiro[2.4]heptane]-5,6-dicarboxamide] | 884 | > 25000 |
| O=C(NCCCCN1CCCC1)[C@H]1[C@H](C(=O)NCc2ccc(Br)cc2F)[C@@H]2C=C[C@H]1C21CC1 [Example 284, (5R)—N^5-(4-Bromo-2-fluorophenyl-methyl)-(6R)—N^6-(4-pyrrolidino-butyl)-(4S,7R)-[4,7-ethenylene-spiro[2.4]heptane]-5,6-dicarboxamide] | 13 | 264 |
| COc1ccc(NC(=O)[C@H]2[C@H](C(=O)NCCCCN3CCCC3)[C@H]3C=C[C@@H]2C32CC2)cc1 [Example 285, (5R)—N^5-(4-Methoxyphenyl)-(6R)—N^6-(4-pyrrolidino-butyl)-(4S,7R)-[4,7-ethenylene-spiro[2.4]heptane]-5,6-dicarboxamide] | 9 | 224 |
| O=C(NCCCCN1CCCC1)[C@H]1[C@H](C(=O)NCc2ccc(Br)cc2)[C@@H]2C=C[C@H]1C21CC1 [Example 286, (5R)—N^5-(4-Bromophenyl-methyl)-(6R)—N^6-(4-pyrrolidino-butyl)-(4S,7R)-[4,7-ethenylene-spiro[2.4]heptane]-5,6-dicarboxamide] | 32 | 32 |
| COc1ccc(NC(=O)[C@H]2[C@H](C(=O)NCCC(=O)O)[C@H]3C=C[C@@H]2C32CC2)cc1 [Example 287, (5R)—N^5-(4-Methoxyphenyl)-(6R)—N^6-(3-hydroxyl-3-oxopropyl)-(4S,7R)-[4,7-ethenylene-spiro[2.4]heptane]-5,6-dicarboxamide] | 516 | > 25000 |
| O=C(NCCCCN1CCCC1)[C@H]1[C@H](C(=O)Nc2ccc(Br)c(F)c2)[C@@H]2C=C[C@H]1C21CC1 [Example 288, (5R)—N^5-(4-Bromo-3-fluorophenyl)-(6R)—N^6-(4-pyrrolidino-butyl)-(4S,7R)-[4,7-ethenylene-spiro[2.4]heptane]-5,6-dicarboxamide] | 0.87 | 33 |
| O=C(NCCCCN1CCCC1)[C@H]1[C@H](C(=O)Nc2ccc(Cl)nc2)[C@@H]2C=C[C@H]1C21CC1 [Example 289, (5R)—N^5-(2-Chloro-pyridin-5-yl)-(6R)—N^6-(4-pyrrolidino-butyl)-(4S,7R)-[4,7-ethenylene-spiro[2.4]heptane]-5,6-dicarboxamide] | 1.6 | 214 |
| COc1ccc(NC(=O)C2C(C(=O)NCCC(N)=O)C3C=CC2C32CC2)cc1 [Example 290, (5R)—N^5-(4-Methoxyphenyl)-(6R)—N^6-(3-amino-3-oxopropyl)-(4S,7R)-[4,7-ethenylene-spiro[2.4]heptane]-5,6-dicarboxamide] | 32 | 1440 |
| NC(=O)CCNC(=O)[C@H]1[C@H](C(=O)NCc2ccc(Br)cc2)[C@@H]2CC[C@H]1C21CC1 [Example 291, (5R)—N^5-(4-Bromophenyl-methyl)-(6R)—N^6-(3-amino-3-oxopropyl)-(4S,7R)-[4,7-ethylene-spiro[2.4]heptane]-5,6-dicarboxamide] | 113 | > 25000 |
| NC(=O)CCNC(=O)[C@H]1[C@H](C(=O)NCc2ccc(Br)cc2F)[C@@H]2CC[C@H]1C21CC1 [Example 292, (5R)—N^5-(4-Bromo-2-fluorophenyl-methyl)-(6R)—N^6-(3-amino-3-oxopropyl)-(4S,7R)-[4,7-ethylene-spiro[2.4]heptane]-5,6-dicarboxamide] | 71 | 661 |
| COc1ccc(NC(=O)[C@H]2[C@H](C(=O)NCCC(N)=O)[C@H]3CC[C@@H]2C32CC2)cc1 [Example 293, (5R)—N^5-(4-Methoxyphenyl)-(6R)—N^6-(3-amino-3-oxopropyl)-(4S,7R)-[4,7-ethylene-spiro[2.4]heptane]-5,6-dicarboxamide] | 59 | 2370 |
| O=C(NCCCCN1CCCC1)[C@H]1[C@H](C(=O)Nc2ccc(Br)cn2)[C@@H]2C=C[C@H]1C21CC1 [Example 294, (5R)—N^5-(5-Bromo-pyridin-2-yl)-(6R)—N^6-(4-pyrrolidino-butyl)-(4S,7R)-[4,7-ethenylene-spiro[2.4]heptane]-5,6-dicarboxamide] | 2.9 | 187 |
| O=C(NCCCCN1CCCC1)[C@H]1[C@H](C(=O)Nc2ccc(Br)cc2F)[C@@H]2C=C[C@H]1C21CC1 [Example 295, (5R)—N^5-(4-Bromo-2-fluorophenyl)-(6R)—N^6-(4-pyrrolidino-butyl)-(4S,7R)-[4,7-ethenylene-spiro[2.4]heptane]-5,6-dicarboxamide] | 1.3 | 116 |
| Cc1cc(Br)ccc1NC(=O)[C@H]1[C@H](C(=O)NCCCCN2CCCC2)[C@H]2C=C[C@@H]1C21CC1 [Example 296, (5R)—N^5-(4-Bromo-2-methylphenyl)-(6R)—N^6-(4-pyrrolidino-butyl)-(4S,7R)-[4,7-ethenylene-spiro[2.4]heptane]-5,6-dicarboxamide] | 275 | 193 |
| O=C(NCCCCN1CCCC1)[C@H]1[C@H](C(=O)Nc2ccc(Br)c(Cl)c2)[C@@H]2C=C[C@H]1C21CC1 [Example 297, (5R)—N^5-(4-Bromo-3-chlorophenyl)-(6R)—N^6-(4-pyrrolidino-butyl)-(4S,7R)-[4,7-ethenylene-spiro[2.4]heptane]-5,6-dicarboxamide] | 367 | 28 |
| NC(=O)CCNC(=O)[C@H]1[C@H](C(=O)Nc2ccc(Cl)nc2)[C@@H]2CC[C@H]1C21CC1 [Example 298, (5R)—N^5-(2-Chloro-pyridin-5-yl)-(6R)—N^6-(3-amino-3-oxopropyl)-(4S,7R)-[4,7-ethylene-spiro[2.4]heptane]-5,6-dicarboxamide] | 24 | 4070 |
| O=C(NCCCCN1CCCC1)[C@H]1[C@H](C(=O)NCc2cnc(Br)s2)[C@@H]2C=C[C@H]1C21CC1 [Example 312, (5R)—N^5-(2-Bromo-thiazol-5-yl-methyl)-(6R)—N^6-(4-pyrrolidino-butyl)-(4S,7R)-[4,7-ethenylene-spiro[2.4]heptane]-5,6-dicarboxamide] | 213 | 208 |

Source: patent US8563714B2, “Bridged spiro [2.4] heptane derivatives as ALX receptor and/or FPRL2 agonists” (Actelion Pharmaceuticals Ltd., priority 2009, dated 2013)
